Experimental data reported in patent publication US12226383B1, “Compositions containing short-chain fatty acid, methods of use, and methods of making thereof” (Velocity Life Sciences, LLC, priority 2024, dated 2025).

Assays:
[1] = Exposure of powder sample at room temperature to air (hygroscopicity, storage stability); type: physicochemical; conditions: for State of powder after exposure to air: exposed to air
Description: The L-arginine butyrate prepared using ethanol as the sole solvent was a white to off-white powder.
The L-lysine butyrate prepared using ethanol as the sole solvent was a light, pale yellow to yellow powder.

[2] = Study to assess nootropic and related properties after oral administration; type: in vivo, human
Description: In another experiment, L-lysine butyrate in a dose range of 500 mg to 5,000 mg was administered as an aqueous solution to six individuals aged between 22 and 55 years, comprising two women and four men. […] The observed effects were dose-dependent, with larger doses of L-lysine butyrate providing greater effects and longer duration, lasting up to four hours.
In another experiment, L-lysine butyrate in a dose of 2 g, and on a separate occasion 5 g, was administered in encapsulated form, to 2 individuals. A further individual was administered L-lysine butyrate in a dose of 2 g in encapsuled form.

[3] = seven (7) days, room temperature

Substance	Hygroscopicity [1]	State of powder after exposure to air ([1]; 24 hours, room temperature)	State of powder after exposure to air [1, 3]	Storage stability of the solid ([1]; room temperature)	State of powder after exposure to air ([1]; thirty (30) days, room temperature)	Time to reported effects after administration ([2]; 500 mg to 5,000 mg as aqueous solution, six individuals)	Effects reported by participants ([2]; 500 mg to 5,000 mg as aqueous solution, six individuals, dose-dependent)	Duration of effects ([2]; 500 mg to 5,000 mg as aqueous solution, larger doses longer duration)	Analgesic effect ([2]; oral administration, 2 g encapsulated, two of the individuals)	Mental effects ([2]; single oral administration of 2 g, encapsulated form)	Mental effects (undesirable) ([2]; single oral administration of 5 g, encapsulated form)	Calming effect in a baby ([2]; small dosage of 25 mg or 50 mg)
L-arginine butyrate [reference compound]	quite hygroscopic	formed hard, rock-like clumps	significantly hydrated into, large solid masses									
L-lysine butyrate	not hygroscopic	remained a fine, free-flowing yellow powder	remained a fine, free-flowing powder with no color change	stable to storage at room temperature	remained a fine, free-flowing powder	thirty	more relaxed, less tired, more sociable, and able to concentrate on tasks more effectively	up to four	eliminating minor-to-moderate pain and discomfort	pleasant mental effects	undesirable mental effects	effective to calm a baby
